Several values for one entry are separate records, joined by “and”; a condition that tells them apart may be missing. Identical values can stand only once.
System: Human Tumor Colony Forming Units
Test: In Vitro Human Tumor Colony Forming Units Test
Conditions: for tumors that had ≧50% survival / tumors tested, total line: all tumor types

`COC(=O)Nc1nc2ccccc2[nH]1` [carbendazim, 2-methoxycarbonylamino-benzimidazole] was tested, and the “positive results / tumors tested” value (1 Hour Exposure, 0.5 μg/ml) was 0/1, the “positive results / tumors tested” value (1 Hour Exposure, 5.0 μg/ml) was 0/1 and the “positive results / tumors tested” value (1 Hour Exposure, 50.0 μg/ml) was 0/1. The “tumors that had ≧50% survival / tumors tested” value (Brain, 2nd '1 Hour Exposure' group, c4-c7 = 0.5, 5.0, 10, 50 μg/ml) was 0/2 and 2/2, the “tumors that had ≧50% survival / tumors tested” value (Breast, 1 Hour Exposure, c1-c3 = 0.5, 5.0, 50 μg/ml) was 0/1 and the “tumors that had ≧50% survival / tumors tested” value (Breast, 2nd '1 Hour Exposure' group, c4-c7 = 0.5, 5.0, 10, 50 μg/ml) was 0/3 and 0/4 and 0/1 and 2/3. For the same compound, the “tumors that had ≧50% survival / tumors tested” value (Cervix, 2nd '1 Hour Exposure' group, c4-c7 = 0.5, 5.0, 10, 50 μg/ml) was 0/1 and 1/1, the “tumors that had ≧50% survival / tumors tested” value (Colon, 1 Hour Exposure, c1-c3 = 0.5, 5.0, 50 μg/ml) was 0/1 and the “tumors that had ≧50% survival / tumors tested” value (Colon, 2nd '1 Hour Exposure' group, c4-c7 = 0.5, 5.0, 10, 50 μg/ml) was 0/5 and 1/5 and 2/5. For the same compound, the “positive results / tumors tested” value (Continuous Exposure, 0.5 μg/ml) was 0/14, the “positive results / tumors tested” value (Continuous Exposure, 5.0 μg/ml) was 3/14 and the “positive results / tumors tested” value (Continuous Exposure, 50.0 μg/ml) was 5/14. For the same compound, the “tumors that had ≧50% survival / tumors tested” value (Head & Neck, 1 Hour Exposure, c1-c3 = 0.5, 5.0, 50 μg/ml) was 0/1, the “tumors that had ≧50% survival / tumors tested” value (Head & Neck, 2nd '1 Hour Exposure' group, c4-c7 = 0.5, 5.0, 10, 50 μg/ml) was 0/1 and 1/1 and the “tumors that had ≧50% survival / tumors tested” value (Kidney, 1 Hour Exposure, c1-c3 = 0.5, 5.0, 50 μg/ml) was 0/1. For the same compound, the “tumors that had ≧50% survival / tumors tested” value (Kidney, 2nd '1 Hour Exposure' group, c4-c7 = 0.5, 5.0, 10, 50 μg/ml) was 0/2 and 1/2, the “tumors that had ≧50% survival / tumors tested” value (Lung, non-small cell, 1 Hour Exposure, c1-c3 = 0.5, 5.0, 50 μg/ml) was 0/1 and the “tumors that had ≧50% survival / tumors tested” value (Lung, non-small cell, 2nd '1 Hour Exposure' group, c4-c7 = 0.5, 5.0, 10, 50 μg/ml) was 0/6 and 2/6 and 0/1 and 2/5. For the same compound, the “tumors that had ≧50% survival / tumors tested” value (Melanoma, 1 Hour Exposure, c1-c3 = 0.5, 5.0, 50 μg/ml) was 0/2 and 1/2, the “tumors that had ≧50% survival / tumors tested” value (Melanoma, 2nd '1 Hour Exposure' group, c4-c7 = 0.5, 5.0, 10, 50 μg/ml) was 0/3 and 1/3 and 2/3 and the “tumors that had ≧50% survival / tumors tested” value (Mesothelioma, 2nd '1 Hour Exposure' group, c4-c7 = 0.5, 5.0, 10, 50 μg/ml) was 0/1. For the same compound, the “tumors that had ≧50% survival / tumors tested” value (Ovary, 1 Hour Exposure, c1-c3 = 0.5, 5.0, 50 μg/ml) was 0/3, the “tumors that had ≧50% survival / tumors tested” value (Ovary, 2nd '1 Hour Exposure' group, c4-c7 = 0.5, 5.0, 10, 50 μg/ml) was 0/1 and 2/13 and 10/13 and the “tumors that had ≧50% survival / tumors tested” value (Sarcoma, 1 Hour Exposure, c1-c3 = 0.5, 5.0, 50 μg/ml) was 0/1 and 1/1. For the same compound, the “tumors that had ≧50% survival / tumors tested” value (Sarcoma, 2nd '1 Hour Exposure' group, c4-c7 = 0.5, 5.0, 10, 50 μg/ml) was 0/1 and 1/1, the “tumors that had ≧50% survival / tumors tested” value (Stomach, 2nd '1 Hour Exposure' group, c4-c7 = 0.5, 5.0, 10, 50 μg/ml) was 0/1 and 1/1 and the “tumors that had ≧50% survival / tumors tested” value (Unknown Primary, 2nd '1 Hour Exposure' group, c4-c7 = 0.5, 5.0, 10, 50 μg/ml) was 0/1. The “tumors that had ≧50% survival / tumors tested” value (Uterus, 2nd '1 Hour Exposure' group, c4-c7 = 0.5, 5.0, 10, 50 μg/ml) was 0/3 and 2/3, the “tumors that had ≧50% survival / tumors tested, total line” value (1 Hour Exposure, c1-c3 = 0.5, 5.0, 50 μg/ml) was 0/11 and 2/11 and the “tumors that had ≧50% survival / tumors tested, total line” value (2nd '1 Hour Exposure' group, c4-c7 = 0.5, 5.0, 10, 50 μg/ml) was 0/4 and 6/44 and 0/3 and 27/41.

— patent US6362207B1, “Methods of treating viral infections with benzimidazoles” (priority 1995, dated 2002)
